Consider four compounds from ChEMBL document CHEMBL2429832, “N-substituted 8-aminopentacyclo[5.4.0.0(2,6).0(3,10).0(5,9)]undecanes as σ receptor ligands with potential neuroprotective effects” (Bioorg Med Chem, 2013).

Structures are written as SMILES. Some results are limits rather than exact numbers.

Test [1] addresses T1, Muscarinic acetylcholine receptor M4 (Homo sapiens, UniProt P08173).
T1 sequence (P08173 whole entry): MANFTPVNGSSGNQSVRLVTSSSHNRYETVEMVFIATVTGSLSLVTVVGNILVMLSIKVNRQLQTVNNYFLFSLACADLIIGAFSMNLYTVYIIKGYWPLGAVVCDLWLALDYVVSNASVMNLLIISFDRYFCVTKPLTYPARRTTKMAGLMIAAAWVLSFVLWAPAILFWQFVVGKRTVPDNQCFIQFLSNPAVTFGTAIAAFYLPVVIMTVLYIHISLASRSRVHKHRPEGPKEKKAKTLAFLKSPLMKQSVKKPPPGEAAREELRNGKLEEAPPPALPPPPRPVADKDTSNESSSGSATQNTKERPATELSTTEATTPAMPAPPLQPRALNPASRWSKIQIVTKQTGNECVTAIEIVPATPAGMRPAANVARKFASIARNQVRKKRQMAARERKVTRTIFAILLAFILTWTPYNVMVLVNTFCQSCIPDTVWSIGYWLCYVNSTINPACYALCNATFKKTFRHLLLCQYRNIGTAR
Description: Inhibition of muscarinic M4 receptor (unknown origin) by PDSP assay.

The target in test [2] is T2, Alpha-2C adrenergic receptor (Homo sapiens, UniProt P18825).
T2 sequence (P18825 whole entry): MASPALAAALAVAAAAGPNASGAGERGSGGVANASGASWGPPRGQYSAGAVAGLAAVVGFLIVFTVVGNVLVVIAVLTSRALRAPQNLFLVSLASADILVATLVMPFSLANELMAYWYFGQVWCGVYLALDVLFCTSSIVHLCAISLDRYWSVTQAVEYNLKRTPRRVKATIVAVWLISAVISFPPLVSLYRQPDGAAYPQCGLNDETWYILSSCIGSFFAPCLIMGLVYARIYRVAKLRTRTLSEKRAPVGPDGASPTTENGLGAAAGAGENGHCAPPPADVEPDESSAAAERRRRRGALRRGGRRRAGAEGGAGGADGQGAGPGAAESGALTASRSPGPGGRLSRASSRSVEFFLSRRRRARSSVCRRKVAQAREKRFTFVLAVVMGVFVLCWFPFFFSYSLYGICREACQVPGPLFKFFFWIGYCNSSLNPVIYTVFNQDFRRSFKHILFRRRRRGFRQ
Description: Inhibition of adrenergic alpha2C receptor (unknown origin) by PDSP assay.

In another test the target is Histamine H2 receptor (Homo sapiens, UniProt P25021). As to the kind of experiment: Inhibition of histamine H2 receptor (unknown origin) at 10 uM by PDSP assay relative to control.
The target in test [3] is T3, Alpha-1B adrenergic receptor (Homo sapiens) (UniProt P35368).
T3 sequence (whole entry): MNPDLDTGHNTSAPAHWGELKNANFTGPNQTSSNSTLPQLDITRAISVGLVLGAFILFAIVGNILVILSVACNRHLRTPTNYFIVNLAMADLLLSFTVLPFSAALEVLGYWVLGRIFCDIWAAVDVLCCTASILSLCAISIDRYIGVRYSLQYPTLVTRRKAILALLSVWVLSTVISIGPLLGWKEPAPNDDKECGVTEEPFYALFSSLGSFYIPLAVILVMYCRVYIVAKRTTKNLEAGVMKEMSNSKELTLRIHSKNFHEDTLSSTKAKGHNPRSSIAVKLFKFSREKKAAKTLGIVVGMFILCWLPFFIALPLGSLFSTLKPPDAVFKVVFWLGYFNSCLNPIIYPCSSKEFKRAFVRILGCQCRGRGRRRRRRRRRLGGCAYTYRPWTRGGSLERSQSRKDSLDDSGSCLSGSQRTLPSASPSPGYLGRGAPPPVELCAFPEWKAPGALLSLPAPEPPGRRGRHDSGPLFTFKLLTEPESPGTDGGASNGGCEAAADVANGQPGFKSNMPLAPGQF
As to the kind of experiment: Inhibition of adrenergic alpha1B receptor (unknown origin) at 10 uM by PDSP assay relative to control.

The target in test [4] is GABA-A receptor; agonist GABA site (Homo sapiens) (UniProt P14867+P47870+P28472+P48169+P34903+P18505+P47869+P31644+Q16445). Description: Inhibition of GABAA receptor (unknown origin) at 10 uM by PDSP assay relative to control. The format is protein-complex assay.
Another test addresses Histamine H1 receptor (Homo sapiens, UniProt P35367). Description: Inhibition of histamine H1 receptor (unknown origin) at 10 uM by PDSP assay relative to control.
Test [5] deals with T4, Muscarinic acetylcholine receptor M2 (Homo sapiens, UniProt P08172).
T4 sequence (P08172 whole entry): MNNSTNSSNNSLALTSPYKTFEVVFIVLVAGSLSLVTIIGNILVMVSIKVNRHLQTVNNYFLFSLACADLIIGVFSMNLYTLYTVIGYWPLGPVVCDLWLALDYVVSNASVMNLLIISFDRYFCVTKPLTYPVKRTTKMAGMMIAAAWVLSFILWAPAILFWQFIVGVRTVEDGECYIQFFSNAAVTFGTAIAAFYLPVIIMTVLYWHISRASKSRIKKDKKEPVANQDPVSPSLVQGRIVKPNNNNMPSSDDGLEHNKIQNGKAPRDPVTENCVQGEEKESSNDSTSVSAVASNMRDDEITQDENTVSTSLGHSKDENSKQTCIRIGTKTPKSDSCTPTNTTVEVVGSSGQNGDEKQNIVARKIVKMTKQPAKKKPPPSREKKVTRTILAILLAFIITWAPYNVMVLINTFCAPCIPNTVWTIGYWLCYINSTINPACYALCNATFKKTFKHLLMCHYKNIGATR
As to the kind of experiment: Inhibition of muscarinic M2 receptor (unknown origin) by PDSP assay.

For test [6], the target named is T5, Muscarinic acetylcholine receptor M5 (Homo sapiens) (UniProt P08912).
T5 sequence (whole entry): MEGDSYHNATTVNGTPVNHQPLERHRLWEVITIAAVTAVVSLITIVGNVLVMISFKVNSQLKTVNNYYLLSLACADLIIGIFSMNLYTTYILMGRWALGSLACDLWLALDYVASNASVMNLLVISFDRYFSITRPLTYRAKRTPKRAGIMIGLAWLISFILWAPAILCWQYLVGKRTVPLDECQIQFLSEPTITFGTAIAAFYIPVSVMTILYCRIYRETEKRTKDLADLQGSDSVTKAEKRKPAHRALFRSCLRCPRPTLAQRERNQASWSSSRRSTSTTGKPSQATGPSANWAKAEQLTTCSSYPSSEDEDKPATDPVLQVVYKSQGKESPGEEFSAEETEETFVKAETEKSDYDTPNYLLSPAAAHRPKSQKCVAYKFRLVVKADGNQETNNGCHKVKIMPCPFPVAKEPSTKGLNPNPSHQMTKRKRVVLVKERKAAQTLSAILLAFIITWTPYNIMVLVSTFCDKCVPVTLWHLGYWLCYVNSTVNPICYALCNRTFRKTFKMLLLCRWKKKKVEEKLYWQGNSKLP
As to the kind of experiment: Inhibition of muscarinic M5 receptor (unknown origin) at 10 uM by PDSP assay relative to control.

Histamine H2 receptor, sequence (P25021 whole entry): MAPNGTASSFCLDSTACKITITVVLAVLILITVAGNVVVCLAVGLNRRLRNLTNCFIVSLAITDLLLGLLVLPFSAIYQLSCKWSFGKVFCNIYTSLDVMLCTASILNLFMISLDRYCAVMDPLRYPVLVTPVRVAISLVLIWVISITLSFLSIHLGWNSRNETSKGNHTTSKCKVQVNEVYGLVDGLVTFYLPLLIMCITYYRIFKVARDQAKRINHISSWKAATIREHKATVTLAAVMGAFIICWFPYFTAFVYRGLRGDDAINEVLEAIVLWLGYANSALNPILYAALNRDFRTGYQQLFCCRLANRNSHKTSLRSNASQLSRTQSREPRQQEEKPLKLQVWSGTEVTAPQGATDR
Histamine H1 receptor, sequence (P35367 whole entry): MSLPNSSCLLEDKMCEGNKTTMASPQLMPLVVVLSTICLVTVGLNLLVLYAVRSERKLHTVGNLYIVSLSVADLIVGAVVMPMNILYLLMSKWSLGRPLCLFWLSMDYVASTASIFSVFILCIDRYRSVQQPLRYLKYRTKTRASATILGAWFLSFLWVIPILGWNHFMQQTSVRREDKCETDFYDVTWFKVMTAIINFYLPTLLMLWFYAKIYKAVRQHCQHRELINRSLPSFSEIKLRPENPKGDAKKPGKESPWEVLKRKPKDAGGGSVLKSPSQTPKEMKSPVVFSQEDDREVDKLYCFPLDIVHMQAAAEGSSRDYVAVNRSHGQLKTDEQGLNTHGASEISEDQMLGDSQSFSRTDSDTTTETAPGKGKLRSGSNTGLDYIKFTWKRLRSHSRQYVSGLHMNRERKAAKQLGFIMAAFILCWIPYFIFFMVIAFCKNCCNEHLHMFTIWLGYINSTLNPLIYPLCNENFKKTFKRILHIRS

For the compound `C1CCC(CN[C@H]2C3C4CC5C6C4CC3C6C52)CC1` (stereo partly drawn), the figures for the Ki in test [1], in test [2] and in test [5] were 0.707 µM, 1.51 µM and 1.01 µM, respectively. Further, the inhibition (against Histamine H2 receptor; in test [3]; in test [4]; against Histamine H1 receptor) was less than 50% in each case.

Consider `CN(CCCc1cccc(F)c1)[C@H]1C2C3CC4C2C(=O)C2C4C3C21` (stereo partly drawn), for which the inhibition constant Ki (in general, the dissociation constant of the complex between target and ligand, obtained from inhibition or displacement) in test [1] was determined as 0.619 µM; in test [2] it was 2.79 µM; in test [5] it was 0.487 µM. Besides, the inhibition (on Histamine H2 receptor; in test [3]; in test [4]; against Histamine H1 receptor) was less than 50% in each case.

As for `CN(Cc1cccc(F)c1)[C@H]1C2C3CC4C2C(=O)C2C4C3C21` (stereo partly drawn), the Ki is 4.04 µM in test [1], 5.05 µM in test [2] and 1.73 µM in test [5]. For the same compound, the inhibition (on Histamine H2 receptor; in test [3]; in test [4]; at Histamine H1 receptor; in test [6]) was less than 50% each time.

As for `CN(CCc1cccc(F)c1)[C@H]1C2C3CC4C2C(=O)C2C4C3C21` (stereo partly drawn), the Ki turned out to be 2.8 µM in test [1], 4.74 µM in test [2] and 2.29 µM in test [5]. In addition, the inhibition (at Histamine H2 receptor; in test [3]; in test [4]) was less than 50% in each case.
